In patent US20140038822A1, “USE OF SUBSTITUTED SPIROCYCLIC SULFONAMIDOCARBOXYLIC ACIDS, CARBOXYLIC ESTERS THEREOF, CARBOXAMIDES THEREOF AND CARBONITRILES THEREOF OR SALTS THEREOF FOR ENHANCEMENT OF STRESS TOLERANCE IN PLANTS” (BAYER INTELLECTUAL PROPERTY GMBH, priority 2010, published 2014):

Experiments:
Format in all cases: in vivo
BRSNS (Brassica napus) = experiment: Drought stress test on crop plants in greenhouse, spray application, efficacy vs untreated stressed control (BRSNS); settings: dosage 250 g/ha, mean of three results
Method: (§1) Seeds of monocotyledonous and dicotyledonous crop plants were placed in sandy loam in wood-fiber pots, covered with soil and cultivated in a greenhouse under good growth conditions. The test plants were treated at the early leaf stage (BBCH10 BBCH13). To ensure uniform water supply before commencement of stress, the potted plants were supplied with the maximum amount of water immediately beforehand by dam irrigation and, after application, transferred in plastic inserts in order to prevent subsequent, excessively rapid drying. The inventive compounds, formulated in the form of wettable powders (WP), wettable granules (WG), suspension concentrates (SC) or emulsion concentrates (EC), were sprayed onto the green parts of the plants as an aqueous suspension at an equivalent water application rate of […] with addition of 0.2% wetting agent (agrotin). Substance application is followed immediately by stress treatment of the plants (cold or drought stress). For cold stress treatment, the plants were kept under the following controlled conditions: […]
(§2) After the recovery phase had ended, the intensities of damage were rated in visual comparison to untreated, unstressed controls of the same age (in the case of drought stress) or the same growth stage (in the case of cold stress). The intensity of damage was first assessed as a percentage (100%=plants have died, 0%=like control plants). […]

[1] = system: TRZAS (Triticum aestivum); experiment: Drought stress test on crop plants in greenhouse, spray application, efficacy vs untreated stressed control (TRZAS); settings: dosage 25 g/ha, efficacy = percentage reduction in the intensity of damage vs untreated stressed control, mean of three results
Method: as §1, §2

ZEAMX (Zea mays) = experiment: Drought stress test on crop plants in greenhouse, spray application, efficacy vs untreated stressed control (ZEAMX); settings: dosage 250 g/ha, efficacy = percentage reduction in the intensity of damage vs untreated stressed control, mean of three results
Method: as §1, §2

COC(=O)C1(NS(=O)(=O)c2ccc(OC)cc2)CCC(OC)CC1 (stereo not drawn) [I.37-87, Methyl 4-methoxy-1-{[(4-methoxyphenyl)sulfonyl]amino}-cyclohexanecarboxylate]
>5%: EF (BRSNS): Efficacy = percentage reduction in the intensity of damage (BRSNS (Brassica napus)) | Efficacy (TRZAS) [1] | EF (ZEAMX) (ZEAMX (Zea mays))
